Reference: patent US20200240980A1, “METHOD FOR DELAYED RECTIFIER CURRENT ENHANCEMENT, CHARACTERIZATION, AND ANALYSIS IN HUMAN INDUCED PLURIPOTENT STEM CELLS” (The Research Foundation for The State University of New York, priority 2017, published 2020)

Test system: IKr expression in human iPSCDCMs
Test: IKr expression in human iPSCDCMs after 48 hour treatment with Endo-Porter transfected morpholino AS oligonucleotide, whole-cell patch clamp
Type: cell-based
Text: Our approach is based on studies showing that morpholino anti-sense (AS) oligonucleotides increased HERG expression in HEK293 cells. We examined the ability of these endoporter (Endo-Porter delivery system) transfected morpholino AS oligonucleotides to increase IKr expression in human iPSCDCMs. The morpholino AS oligonucleotide Endo-Porter, is a proprietary weak-base amphiphilic peptide that was designed to deliver non-ionic substances into the cytosol/nuclear compartment of cells by an endocytosis-mediated process. Following a 48 hour treatment with morpholino AS oligonucleotide (alpha2NS 05Z) significant increase (p<0.05) in IKr expression was observed compared to naïve/vehicle and an inverse morpholino AS oligonucleotide control (MPL ZN9DSZ INV) (Morpholino AS oligonucleotide (n=28): 0.29±0.04 pA/pF, INV control (n=7): 0.11±0.08 pA/pF). […] In naïve/vehicle treated cells we observed a near equal frequency of cells expressing current densities <0.2 pA/pF and >0.2 pA/pF. However, following morpholino AS oligonucleotide treatment cells expressing current densities >0.2 pA/pF increased to 71% p<0.05 as shown in FIG. 4.

5′-CAGAACACAGTAGTGAATCAAAACC-3′ (all phosphorodiamidate morpholino (PMO)) [alpha2NS 05Z, morpholino anti-sense oligonucleotide specific for a polyadenylation signal in Intron 9 of the KCNH2 gene]
cells expressing IKr current densities >0.2 pA/pF (hiPSCDCMs after morpholino AS oligonucleotide treatment, p<0.05, near equal frequency in naïve/vehicle cells, FIG. 4): 71% | IKr current density (hiPSCDCMs, 48 hour treatment, mean ± spread, n=28 (morpholino AS), n=7 (INV control)): 0.29±0.04 pA/pF | distribution of IKr current densities ≤0.2 pA/pF or >0.2 pA/pF versus naïve/vehicle cells (hiPSCDCMs, p<0.05, FIG. 4): significant shift
